Measured values as given in US5120750A, “Generation of 1,4-dihydropyridine derivatives” (priority 1990, dated 1992).
“Also recorded” adds a separate entry of the source. Like-named read-outs stand apart in the source and are kept apart here. Blank lines part the entries; values can stand above or below the molecule they belong to.

Experiments:
angiotensin = test: In-vitro angiotensin inhibitory activity; format: biochemical; settings: for Percent Inhibition (angiotensin inhibitory activity): in vitro; for angiotensin inhibitory activity (in words): general pharmacological screening
calcium channel = target: T1, calcium channel (Cavia porcellus, UniProt O35505); test: Calcium channel antagonist activity: inhibition of muscarinic receptor-mediated Ca2+-dependent contraction (carbachol) of guinea pig ileal longitudinal smooth muscle; format: cell-based; settings: for relative potency as compared with Nifedipine: Nifedipine = reference
T1 construct: Longitudinal smooth muscle segments of 2 cm length were mounted under a resting tension; from tissue; host or cells: ileal longitudinal smooth muscle segments of male albino guinea pigs
Experimental: Male albino guinea pigs (body weight 300-450 g) were sacrificed by decapitation. The intestine was removed above the ileo-caecal junction. Longitudinal smooth muscle segments of 2 cm length were mounted under a resting tension of 300-400 mg. […] The muscles were equilibrated for 1 h with a solution change every 15 min. Two successive control contractions were elicited at 15 min. intervals with 5×10^-7 M carbachol. The isometric contractions were recorded with a force displacement transducer (FT 03C) on a GRASS* physiograph. The means of the […] contractile responses was taken as the 100% value for the tonic (slow) component of the response. The muscle was washed with Hepes saline solution and was allowed to re-equilibrate. The calcium antagonist (test compound) was added ten min before the dose-response for carbachol was determined. The drug-induced inhibition of contraction was expressed as percent of control. The ID50 values were graphically determined from the concentration-response curves, in triplicate.

[1] = In-vivo (P.O.) anti-ulcer stress activity; settings: for anti-ulcer stress Activity: P.O.; for anti-ulcer stressic activity (in words): general pharmacological screening
LTD4 = LTD4 antagonistic activity (general pharmacological screening)
[2] = In-vivo (P.O.) anti-inflammatory activity; settings: for anti-inflammatory Activity: P.O.
heart muscle = test: Ionotropic effect on heart muscle; settings: for heart contractile force: at concentrations which exhibit Ca-blocking effect in smooth muscles; for positive ionotropic effect on the heart: in the same concentration as on smooth muscle; for activation at 0.00325 µM: same concentration as smooth muscle relaxant (Compound 11: 3.25×10^-9 M), Compound 19 in the same condition, read-out: positive ionotropic effect on heart muscle
heart [3] = test: Effect on heart rate
SHR Rat = test: Blood pressure and heart rate in SHR Rat; format: in vivo; settings: 0.2 mg/Kg
heart [4] = settings: J. Cardiovascular Pharmacology, 1987, 10 (Suppl. 1) S60-S65; cited from earlier work
[5] = guinea pig ileal longitudinal smooth muscle, carbachol, 37° C., triplicate, read-out: calcium channel antagonist act., inhib. act. on contractile response to CD ID50

T1 sequence (O35505 whole entry): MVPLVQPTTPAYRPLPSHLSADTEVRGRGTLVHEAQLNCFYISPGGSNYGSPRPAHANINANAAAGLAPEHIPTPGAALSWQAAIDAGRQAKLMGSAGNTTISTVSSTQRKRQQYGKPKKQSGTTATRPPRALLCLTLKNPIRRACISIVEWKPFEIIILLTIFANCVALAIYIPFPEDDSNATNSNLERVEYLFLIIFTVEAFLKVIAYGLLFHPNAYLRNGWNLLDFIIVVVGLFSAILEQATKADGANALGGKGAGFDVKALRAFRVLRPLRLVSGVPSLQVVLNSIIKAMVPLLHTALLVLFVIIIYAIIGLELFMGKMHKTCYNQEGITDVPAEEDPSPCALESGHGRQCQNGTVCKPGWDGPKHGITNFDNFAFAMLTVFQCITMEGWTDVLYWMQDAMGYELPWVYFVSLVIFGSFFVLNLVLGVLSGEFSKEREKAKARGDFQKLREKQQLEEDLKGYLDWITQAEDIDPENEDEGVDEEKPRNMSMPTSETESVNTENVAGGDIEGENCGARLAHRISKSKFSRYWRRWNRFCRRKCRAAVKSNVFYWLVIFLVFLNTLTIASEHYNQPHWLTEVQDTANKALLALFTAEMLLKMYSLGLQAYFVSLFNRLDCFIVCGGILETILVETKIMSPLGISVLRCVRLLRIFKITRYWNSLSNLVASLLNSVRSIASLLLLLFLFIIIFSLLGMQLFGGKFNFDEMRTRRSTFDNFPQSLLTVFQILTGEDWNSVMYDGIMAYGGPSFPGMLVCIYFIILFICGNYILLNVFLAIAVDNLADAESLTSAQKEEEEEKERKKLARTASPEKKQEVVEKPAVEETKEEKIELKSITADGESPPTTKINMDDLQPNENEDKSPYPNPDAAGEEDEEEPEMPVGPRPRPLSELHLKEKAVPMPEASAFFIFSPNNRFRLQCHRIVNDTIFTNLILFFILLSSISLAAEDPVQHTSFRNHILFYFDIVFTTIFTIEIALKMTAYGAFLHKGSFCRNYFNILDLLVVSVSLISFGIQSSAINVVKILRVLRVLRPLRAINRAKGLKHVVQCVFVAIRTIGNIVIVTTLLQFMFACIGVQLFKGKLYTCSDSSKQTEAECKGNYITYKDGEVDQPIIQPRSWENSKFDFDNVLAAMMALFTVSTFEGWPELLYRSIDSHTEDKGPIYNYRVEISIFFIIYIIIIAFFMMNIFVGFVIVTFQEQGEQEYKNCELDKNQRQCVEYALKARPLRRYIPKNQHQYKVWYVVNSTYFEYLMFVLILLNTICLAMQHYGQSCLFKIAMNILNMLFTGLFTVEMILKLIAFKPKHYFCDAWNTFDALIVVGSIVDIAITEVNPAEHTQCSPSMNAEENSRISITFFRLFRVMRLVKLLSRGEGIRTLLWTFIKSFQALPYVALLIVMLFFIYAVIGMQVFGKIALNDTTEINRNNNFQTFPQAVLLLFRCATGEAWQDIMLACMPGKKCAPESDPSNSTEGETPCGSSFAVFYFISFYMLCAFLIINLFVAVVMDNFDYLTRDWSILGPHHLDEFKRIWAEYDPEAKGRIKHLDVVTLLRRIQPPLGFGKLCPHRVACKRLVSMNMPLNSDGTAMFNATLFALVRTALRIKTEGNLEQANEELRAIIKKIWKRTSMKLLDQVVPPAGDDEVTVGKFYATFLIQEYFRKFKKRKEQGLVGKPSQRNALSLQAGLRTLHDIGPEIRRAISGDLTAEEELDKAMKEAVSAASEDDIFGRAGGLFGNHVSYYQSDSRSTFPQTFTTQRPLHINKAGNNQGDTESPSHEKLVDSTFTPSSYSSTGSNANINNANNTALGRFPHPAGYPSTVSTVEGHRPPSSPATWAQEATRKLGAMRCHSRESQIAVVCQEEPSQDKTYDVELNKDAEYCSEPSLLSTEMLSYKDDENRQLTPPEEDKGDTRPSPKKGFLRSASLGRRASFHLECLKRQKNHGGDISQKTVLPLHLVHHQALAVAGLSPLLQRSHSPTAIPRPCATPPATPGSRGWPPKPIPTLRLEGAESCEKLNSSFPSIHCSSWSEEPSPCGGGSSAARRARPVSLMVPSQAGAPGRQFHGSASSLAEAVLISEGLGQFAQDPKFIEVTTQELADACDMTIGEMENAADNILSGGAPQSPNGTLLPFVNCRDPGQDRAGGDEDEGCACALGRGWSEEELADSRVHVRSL

Structure (SMILES): C[C@H](CS)C(=O)N1CCC[C@H]1C(=O)O [Captopril, reference compound]
Percent Inhibition (angiotensin inhibitory activity) (angiotensin; 0.05 μg/ml): 69%

Structure (SMILES): COC(=O)C1=C(C)NC(C)=C(C(=O)OCCCCCCCc2nc(C)cs2)C1c1cccc(C(F)(F)F)c1 (centres unmarked) [Example 13, 3-[7-(4-Methylthiazol-2-yl)heptyloxycarbonyl]-5-methoxycarbonyl-2,6-dimethyl-4-(3-trifluoromethylphenyl)-1,4-dihydropyridine]
anti-inflammatory Activity ([2]; 25 mg/kg): 43%

Structure (SMILES): COC(=O)C1=C(C)NC(C)=C(C(=O)OCCCCCCSc2nc(C)cs2)C1c1cccc([N+](=O)[O-])c1 (centres unmarked) [Example 18, 3-[6-(4-Methylthiazol-2-yl)thiohexyloxycarbonyl]-5-methoxycarbonyl-2,6-dimethyl-4-(3-nitrophenyl)-1,4-dihydropyridine]
IC50 (calcium channel; [5]): 5.48 nM

Structure (SMILES): COC(=O)C1=C(C)NC(C)=C(C(=O)OCCCCCCS(=O)(=O)c2nc(C)cs2)C1c1cccc([N+](=O)[O-])c1 (centres unmarked) [Example 19, 3-[6-(4-Methylthiazol-2-yl)sulfonylhexyloxycarbonyl]-5-methoxycarbonyl-2,6-dimethyl-4-(3-nitrophenyl)-1,4-dihydropyridine]
IC50 (calcium channel; [5]): 5.81 nM | relative potency as compared with Nifedipine (calcium channel; smooth muscle): 2.5 | heart contractile force (heart muscle): increase the heart contractile force | positive ionotropic effect on the heart (heart muscle): about 22% | activation at 0.00325 µM (heart muscle): 25% | heart rate change (heart [3]): without changing the heart rate

Structure (SMILES): COC(=O)C1=C(C)NC(C)=C(C(=O)OCCCCCC[S+]([O-])c2nc(C)cs2)C1c1cccc([N+](=O)[O-])c1 (centres unmarked) [Example 20, 3-[6-(4-Methylthiazol-2-yl)sulfinylhexyloxycarbonyl]-5-methoxycarbonyl-2,6-dimethyl-4-(3-nitrophenyl)-1,4-dihydropyridine]
IC50 (calcium channel; [5]): 15.4 nM

Structure (SMILES): CCOC(=O)C1=C(C)NC(C)=C(C(=O)OC)C1c1cccc(Cl)c1Cl (centres unmarked) [Felodipine, 3-ethoxycarbonyl-5-methoxycarbonyl-4-(2,3-dichlorophenyl)-2,6-dimethyl-1,4-dihydropyridine]
effect on heart rate (tachycardia) (heart [4]): creates tachycardia

Structure (SMILES): C[C@]12CCC(=O)C=C1CC[C@@H]1[C@@H]2[C@@H](O)C[C@@]2(C)[C@H]1CC[C@]2(O)C(=O)CO [Hydrocortisone, reference compound]
anti-inflammatory Activity ([2]; 25 mg/kg): 32%

Structure (SMILES): CCCCC1C(=O)N(c2ccccc2)N(c2ccccc2)C1=O [Phenylbutazone, reference compound]
anti-inflammatory Activity ([2]; 50 mg/kg): 33%

Structure (SMILES): CN1CCN(CC(=O)N2c3ccccc3C(=O)Nc3cccnc32)CC1 [Pirenzepine, reference compound]
anti-ulcer stress Activity ([1]; 50 mg/kg): 75%

Now from value to molecule, other results behind:

IC50 (calcium channel; [5]): 3.84 nM
Structure (SMILES): COC(=O)C1=C(C)NC(C)=C(C(=O)OCCCCCCCc2cc(C)no2)C1c1cccc([N+](=O)[O-])c1 (centres unmarked) [Example 1, 3-[7-(3-Methylisoxazol-5-yl)heptyloxycarbonyl]-5-methoxycarbonyl-2,6-dimethyl-4-(3-nitrophenyl)-1,4-dihydropyridine]
angiotensin inhibitory activity (in words) (angiotensin): very strong | Percent Inhibition (angiotensin inhibitory activity) (angiotensin; 0.0025 μg): 60% | Percent Inhibition (angiotensin inhibitory activity) (angiotensin; 0.01 μg/ml): 93% | anti-ulcer stress Activity ([1]; 50 mg/kg): 63% | anti-ulcer stressic activity (in words) [1]: very strong | LTD4 antagonistic activity (in words) (LTD4): very strong

IC50 (calcium channel; [5]): 5.13 nM
Structure (SMILES): COC(=O)C1=C(C)NC(C)=C(C(=O)OCCCCCCCc2cc(C)no2)C1c1cccc(C(F)(F)F)c1 (centres unmarked) [Example 3, 3-[7-(3-Methylisoxazol-5-yl)heptyloxycarbonyl]-5-methoxycarbonyl-2,6-dimethyl-4-(3-trifluoromethylphenyl)-1,4-dihydropyridine]

IC50 (calcium channel; [5]): 6.24 nM
Structure (SMILES): COC(=O)C1=C(C)NC(C)=C(C(=O)OCCCCCCn2nc(C)cc2C)C1c1cccc([N+](=O)[O-])c1 (centres unmarked) [Example 5, 3-[6-(3,5-Dimethylpyrazol-1-yl)hexyloxycarbonyl]-5-methoxycarbonyl-2,6-dimethyl-4-(3-nitrophenyl) -1,4-dihydropyridine]
Percent Inhibition (angiotensin inhibitory activity) (angiotensin; 0.001 μg): 58% | Percent Inhibition (angiotensin inhibitory activity) (angiotensin; 0.01 μg/ml): 95% | anti-inflammatory Activity ([2]; 40 mg/kg): 35% | anti-inflammatory activity (in words) ([2]; general pharmacological screening): very strong

relative potency as compared with Nifedipine (calcium channel; smooth muscle): 4.3 | IC50 (calcium channel; smooth muscle, read-out: IC50 as calcium antagonist in smooth muscle): 3.25 ± 0.33 nM
Structure (SMILES): COC(=O)C1=C(C)NC(C)=C(C(=O)OCCCCCCCc2nc(C)cs2)C1c1cccc([N+](=O)[O-])c1 (centres unmarked) [Example 11, 3-[7-(4-Methylthiazol-2-yl)heptyloxycarbonyl]-5-methoxycarbonyl-2,6-dimethyl-4-(3-nitrophenyl)-1,4-dihydropyridine]
heart contractile force (heart muscle): increase the heart contractile force; also recorded: increases cardia contractile force | positive ionotropic effect on the heart (heart muscle): about 12% | activation at 0.00325 µM (heart muscle): ~12% | heart rate change (heart [3]): without changing the heart rate; also recorded: no effect on the heart | heart rate change in SHR Rat (SHR Rat): without changing the heart rate

IC50 (calcium channel; [5]): 6.25 nM
Structure (SMILES): COC(=O)C1=C(C)NC(C)=C(C(=O)OCCCCCCCc2nc(C)cs2)C1c1cccc(Cl)c1 (centres unmarked) [Example 15, 3-[7-(4-Methylthiazol-2-yl)heptyloxycarbonyl]-5-methoxycarbonyl-2,6-dimethyl-4-(3-chlorophenyl)-1,4-dihydropyridine]
angiotensin inhibitory activity (in words) (angiotensin): very strong | Percent Inhibition (angiotensin inhibitory activity) (angiotensin; 0.1 μg/ml): 64% | anti-ulcer stress Activity ([1]; 40 mg/kg): 63% | anti-ulcer stressic activity (in words) [1]: very strong | LTD4 antagonistic activity (in words) (LTD4): very strong

IC50 (calcium channel; [5]): 48.1 nM
Structure (SMILES): COC(=O)C1=C(C)NC(C)=C(C(=O)OCCCCCCCc2nc(C)cs2)C1c1cccc(Cl)c1Cl (centres unmarked) [Example 17, 3-[7-(4-Methylthiazol-2-yl)heptyloxycarbonyl]-5-methoxycarbonyl-2,6-dimethyl-4-(2,3-dichlorophenyl)-1,4-dihydropyridine]
